# Measured values from patent publication US8691842B2, “Pharmaceutical composition for preventing or treating rheumatoid arthritis, containing rebamipide” (Catholic University Industry Academic Cooperation Foundation, priority 2009, dated 2014).
# Entries after “also recorded” stand apart in the source; their conditions may differ.
# Columns and labels:
# Format in all cases: in vivo, DBA/1J mice
# [1] = test system: CII-specific immunoglobulin (total IgG); assay: Serologic test (ELISA) measuring collagen-specific antibody in serum of CIA animals; details: CIA mice, rebamipide orally, serum diluted 1:8000, FIG. 3
# [2] = test system: collagen induced arthritis (CIA) animal model; assay: Average arthritis score in collagen induced arthritis (CIA) animals; details: CIA mice; rebamipide 0.6 mg/kg or 6 mg/kg orally, every other day, ten times; evaluated second to tenth week; FIG. 1
# [3] = test system: collagen induced arthritis (CIA) animal model; assay: Histological test of joints and cartilage in CIA animals; details: CIA mice, FIG. 2
smiles,measurement,setting,value
O=C(NC(Cc1cc(=O)[nH]c2ccccc12)C(=O)O)c1ccc(Cl)cc1 (stereo not shown) [rebamipide],level of Type II collagen-specific immunoglobulin (total IgG) in serum,[1],significantly decreased
same,arthritis score,[2],dose-dependently decreased; also recorded: gradually decreased
same,degree of joint and cartilage destruction,"[3]; rebamipide 0.6 mg/kg or 6 mg/kg orally, sacrificed after 10 weeks, hematoxylin and eosin, toluidine blue, safranin O",remarkably reduced
same,degree of cartilage destruction,"[3]; rebamipide orally, histological assay","improved, being similar to that of a normal mouse"
